What was measured:
[1] = test system: generalized trembling caused by dl-5-hydroxytryptophane; experiment: Test A: potentiation in mice of generalized trembling caused by dl-5-hydroxytryptophane; assay type: in vivo; settings: po, mice, potentiation of trembling by dl-5-hydroxytryptophane 200 mg/kg interperitoneal; for ED50: Mus musculus, read-out: Test A ED 50
Method: Test A: Potentiation in mice of generalized trembling caused by an interperitoneal injection (200 mg/kg) of dl-5-hydroxytryptophane, following the protocol described by C. GOURET and G. RAYNAUD in J. Pharmacol. (Paris), (1974), 5, 231.

[2] = test system: ptosis observed one hour after reserpine; experiment: Test B: antagonism of reserpine-induced ptosis in mice; assay type: in vivo; settings: Mus musculus, 1 h, po, antagonism of ptosis one hour after reserpine 2 mg/kg intravenous, read-out: Test B ED 50
Method: Test B: Antagonism with respect to the ptosis observed one hour after an intravenous injection (2 mg/kg) of reserpine given to mice, following the protocol described by C.

SMILES	ED50 [1]	ED50 [2]	Test A ED 50 [1]
Cc1cccc(N2CC(CO)OC2=O)c1 (stereo not shown) [TOLOXATONE, reference compound]	60 mg/kg	50 mg/kg	–
CC(=O)OCC1CN(c2ccc(OCC#N)cc2)C(=O)O1 (stereo not shown) [compound 1]	12.5 mg/kg	6.2 mg/kg	–
CCC(=O)OCC1CN(c2ccc(OCC#N)cc2)C(=O)O1 (stereo not shown) [compound 2]	12.5 mg/kg	8 mg/kg	–
CCC(=O)OCC1CN(c2ccc(OCCC#N)cc2)C(=O)O1 (stereo not shown) [compound 4]	2.3 mg/kg	3.4 mg/kg	–
CC(C)C(=O)OCC1CN(c2ccc(OCCC#N)cc2)C(=O)O1 (stereo not shown) [compound 5]	4.7 mg/kg	9.5 mg/kg	–
CCCCC(=O)OCC1CN(c2ccc(OCCC#N)cc2)C(=O)O1 (stereo not shown) [compound 6]	2.4 mg/kg	6 mg/kg	–
CC(C)(C)C(=O)OCC1CN(c2ccc(OCCC#N)cc2)C(=O)O1 (stereo not shown) [compound 7]	–	7.4 mg/kg	–
N#CCCOc1ccc(N2CC(COC(=O)C3CCCCC3)OC2=O)cc1 (stereo not shown) [compound 8]	2.2 mg/kg	7.2 mg/kg	–
CCCCCCCCC(=O)OCC1CN(c2ccc(OCCC#N)cc2)C(=O)O1 (stereo not shown) [compound 9]	–	25 mg/kg	–
N#CCCOc1ccc(N2CC(COC(=O)c3ccccc3)OC2=O)cc1 (stereo not shown) [compound 10]	2.4 mg/kg	5.8 mg/kg	–
CCCCOc1ccc(N2CC(COC(C)=O)OC2=O)cc1 (stereo not shown) [compound 11]	4.2 mg/kg	6.2 mg/kg	–
CCCCOc1ccc(N2CC(COC(=O)C(C)(C)C)OC2=O)cc1 (stereo not shown) [compound 12]	4.6 mg/kg	6 mg/kg	–
CCC(=O)OCC1CN(c2ccc(OCC3CCCC3)cc2)C(=O)O1 (stereo not shown) [compound 14]	2 mg/kg	3.1 mg/kg	–
CC(C)C(=O)OCC1CN(c2ccc(OCC3CCCC3)cc2)C(=O)O1 (stereo not shown) [compound 15]	2.2 mg/kg	2 mg/kg	–
CCCCC(=O)OCC1CN(c2ccc(OCC3CCCC3)cc2)C(=O)O1 (stereo not shown) [compound 16]	1.7 mg/kg	1.5 mg/kg	–
CC(C)(C)C(=O)OCC1CN(c2ccc(OCC3CCCC3)cc2)C(=O)O1 (stereo not shown) [compound 17]	4.8 mg/kg	3.6 mg/kg	–
O=C(OCC1CN(c2ccc(OCC3CCCC3)cc2)C(=O)O1)C1CCCCC1 (stereo not shown) [compound 18]	4 mg/kg	4.25 mg/kg	–
CCCCCCCCC(=O)OCC1CN(c2ccc(OCC3CCCC3)cc2)C(=O)O1 (stereo not shown) [compound 19]	5.5 mg/kg	3.5 mg/kg	–
O=C(OCC1CN(c2ccc(OCC3CCCC3)cc2)C(=O)O1)c1ccccc1 (stereo not shown) [compound 20]	8.8 mg/kg	3.7 mg/kg	–
CC(=O)OCC1CN(c2ccc(OCC3CCCCC3)cc2)C(=O)O1 (stereo not shown) [compound 21]	2.1 mg/kg	3.5 mg/kg	–
CCC(=O)OCC1CN(c2ccc(OCC3CCCCC3)cc2)C(=O)O1 (stereo not shown) [compound 22]	–	3 mg/kg	–
CC(=O)OCC1CN(c2ccc(OCc3ccccc3)cc2)C(=O)O1 (stereo not shown) [compound 23]	12 mg/kg	12.5 mg/kg	–
CC(C)C(=O)OCC1CN(c2ccc(OCc3ccccc3)cc2)C(=O)O1 (stereo not shown) [compound 25]	15 mg/kg	25 mg/kg	–
CCCCC(=O)OCC1CN(c2ccc(OCc3ccccc3)cc2)C(=O)O1 (stereo not shown) [compound 26]	12.5 mg/kg	20 mg/kg	–
CC(C)(C)C(=O)OCC1CN(c2ccc(OCc3ccccc3)cc2)C(=O)O1 (stereo not shown) [compound 27]	25 mg/kg	44 mg/kg	–

SMILES	ED50 [1]	ED50 [2]	Test A ED 50 [1]
CCCCCCCCC(=O)OCC1CN(c2ccc(OCc3ccccc3)cc2)C(=O)O1 (stereo not shown) [compound 28]	32 mg/kg	20 mg/kg	–
O=C(OCC1CN(c2ccc(OCc3ccccc3)cc2)C(=O)O1)c1ccccc1 (stereo not shown) [compound 29]	45 mg/kg	50 mg/kg	–
CC(=O)OCC1CN(c2ccc(OCc3cccc(Cl)c3)cc2)C(=O)O1 (stereo not shown) [compound 30]	4.2 mg/kg	4.5 mg/kg	–
CCC(=O)OCC1CN(c2ccc(OCc3cccc(Cl)c3)cc2)C(=O)O1 (stereo not shown) [compound 31]	6.5 mg/kg	3.6 mg/kg	–
CC(C)C(=O)OCC1CN(c2ccc(OCc3cccc(Cl)c3)cc2)C(=O)O1 (stereo not shown) [compound 32]	4.7 mg/kg	3.6 mg/kg	–
CCCCC(=O)OCC1CN(c2ccc(OCc3cccc(Cl)c3)cc2)C(=O)O1 (stereo not shown) [compound 33]	9.4 mg/kg	4.5 mg/kg	–
CC(C)(C)C(=O)OCC1CN(c2ccc(OCc3cccc(Cl)c3)cc2)C(=O)O1 (stereo not shown) [compound 34]	7 mg/kg	7.5 mg/kg	–
CCCCCCCCC(=O)OCC1CN(c2ccc(OCc3cccc(Cl)c3)cc2)C(=O)O1 (stereo not shown) [compound 35]	19 mg/kg	6.5 mg/kg	–
CC(=O)OCC1CN(c2ccc(OCc3cccc([N+](=O)[O-])c3)cc2)C(=O)O1 (stereo not shown) [compound 36, Para (meta-nitrobenzyloxy) phenyl-3 acetoxy-methyl-5 oxazolidinone-2]	1.7 mg/kg	1.5 mg/kg	–
CCC(=O)OCC1CN(c2ccc(OCc3cccc([N+](=O)[O-])c3)cc2)C(=O)O1 (stereo not shown) [compound 37]	1.9 mg/kg	2 mg/kg	–
CC(C)C(=O)OCC1CN(c2ccc(OCc3cccc([N+](=O)[O-])c3)cc2)C(=O)O1 (stereo not shown) [compound 38]	1.5 mg/kg	2 mg/kg	–
CCCCC(=O)OCC1CN(c2ccc(OCc3cccc([N+](=O)[O-])c3)cc2)C(=O)O1 (stereo not shown) [compound 39]	1.75 mg/kg	1.6 mg/kg	–
CC(C)(C)C(=O)OCC1CN(c2ccc(OCc3cccc([N+](=O)[O-])c3)cc2)C(=O)O1 (stereo not shown) [compound 40]	6.2 mg/kg	1.5 mg/kg	–
O=C(OCC1CN(c2ccc(OCc3cccc([N+](=O)[O-])c3)cc2)C(=O)O1)C1CCCCC1 (stereo not shown) [compound 41]	6.2 mg/kg	4.5 mg/kg	–
CCCCCCCCC(=O)OCC1CN(c2ccc(OCc3cccc([N+](=O)[O-])c3)cc2)C(=O)O1 (stereo not shown) [compound 42]	1.25 mg/kg	2 mg/kg	–
O=C(OCC1CN(c2ccc(OCc3cccc([N+](=O)[O-])c3)cc2)C(=O)O1)c1ccccc1 (stereo not shown) [compound 43]	15 mg/kg	17.5 mg/kg	–
CCC(=O)OCC1CN(c2ccc(OCc3cccc(F)c3)cc2)C(=O)O1 (stereo not shown) [compound 44]	6.2 mg/kg	–	–
COCC1CN(c2cccc(C)c2)C(=O)O1 (stereo not shown) [compound 45]	45 mg/kg	50 mg/kg	–
CCCCOc1ccc(N2CC(COC)OC2=O)cc1 (stereo not shown) [compound 46]	1.5 mg/kg	2 mg/kg	–
CCCCOc1ccc(N2CC(COC(C)C)OC2=O)cc1 (stereo not shown) [compound 47, para-n-butyloxy phenyl-3 isopropyloxymethyl-5 oxazolidinone-2]	18 mg/kg	36 mg/kg	–
CCCCOc1ccc(N2CC(COC3CCCCC3)OC2=O)cc1 (stereo not shown) [compound 48]	50 mg/kg	50 mg/kg	–
CC(C)OCC1CN(c2ccc(OCC3CCCC3)cc2)C(=O)O1 (stereo not shown) [compound 50]	17.5 mg/kg	15 mg/kg	–
COCC1CN(c2ccc(OCC3=CCCCC3)cc2)C(=O)O1 (stereo not shown) [compound 56]	–	3 mg/kg	–
CC(C)OCC1CN(c2ccc(OCc3cccc(Cl)c3)cc2)C(=O)O1 (stereo not shown) [compound 60]	30 mg/kg	–	–
COCC1CN(c2ccc(OCc3ccc(F)cc3)cc2)C(=O)O1 (stereo not shown) [compound 64]	–	4.5 mg/kg	–

SMILES	ED50 [1]	ED50 [2]	Test A ED 50 [1]
CCCCOc1ccc(N2CC(CN(C)C)OC2=O)cc1 (stereo not shown) [compound 75]	8 mg/kg	–	–
CN(C)CC1CN(c2ccc(OCC3CCCC3)cc2)C(=O)O1 (stereo not shown) [compound 78]	6.2 mg/kg	–	–
OCC1CN(c2ccc(OCC3CCCC3)cc2)C(=S)O1 (stereo not shown) [compound 100]	6.2 mg/kg	–	–
OCC1CN(c2ccc(OCC3=CCCCC3)cc2)C(=S)O1 (stereo not shown) [compound 101]	18 mg/kg	–	–
N#CCCOc1ccc(N2CC(CO)OC2=S)cc1 (stereo not shown) [compound 102]	6.2 mg/kg	–	–
CCCCC(=O)OCC1CN(c2ccc(OCC3CCCCC3)cc2)C(=O)O1 (stereo not shown) [compound 104]	6.2 mg/kg	–	–
CC(C)(C)C(=O)OCC1CN(c2ccc(OCC3CCCCC3)cc2)C(=O)O1 (stereo not shown) [compound 105]	6.2 mg/kg	–	–
CCC(=O)OCC1CN(c2ccc(OCc3cccc(F)c3)cc2)C(=O)O1 (stereo not shown) [compound 106]	–	–	6.2 mg/kg
CC(C)C(=O)OCC1CN(c2ccc(OCc3cccc(F)c3)cc2)C(=O)O1 (stereo not shown) [compound 107]	–	12 mg/kg	–
CCCCC(=O)OCC1CN(c2ccc(OCc3cccc(F)c3)cc2)C(=O)O1 (stereo not shown) [compound 108]	5.6 mg/kg	–	–
COCC1CN(c2ccc(OCCCC#N)cc2)C(=O)O1 (stereo not shown) [compound 110]	0.3 mg/kg	–	–
COCC1CN(c2ccc(OCCC(C)C)cc2)C(=O)O1 (stereo not shown) [compound 111]	0.28 mg/kg	–	–
OCC1CN(c2ccc(OCC3CCOCC3)cc2)C(=S)O1 (stereo not shown) [compound 119]	–	8 mg/kg	–
CC(=O)OCC1CN(c2ccc(OCc3cccc(C#N)c3)cc2)C(=S)O1 (stereo not shown) [compound 120]	–	3 mg/kg	–
CCC(=O)OCC1CN(c2ccc(OCCC(C)C)cc2)C(=O)O1 (stereo not shown) [compound 124]	–	0.6 mg/kg	–
CC(C)CC(=O)OCC1CN(c2ccc(OCc3cccc([N+](=O)[O-])c3)cc2)C(=O)O1 (stereo not shown) [compound 134]	–	3.9 mg/kg	–
CCC(=O)OCC1CN(c2ccc(OCc3ccc(F)cc3)cc2)C(=O)O1 (stereo not shown) [compound 135]	–	4.2 mg/kg	–
CCCCCCCCC(=O)OCC1CN(c2ccc(OCc3ccc(F)cc3)cc2)C(=O)O1 (stereo not shown) [compound 136]	–	31 mg/kg	–
CCC(=O)OCC1CN(c2ccc(OCc3cc(Cl)cc([N+](=O)[O-])c3)cc2)C(=O)O1 (stereo not shown) [compound 137]	–	6 mg/kg	–
CCCCCCCCC(=O)OCC1CN(c2ccc(OCc3cc(Cl)cc([N+](=O)[O-])c3)cc2)C(=O)O1 (stereo not shown) [compound 138]	–	6 mg/kg	–
CCCCCOc1ccc(N2CC(COC)OC2=O)cc1 (stereo not shown) [compound 148]	2.2 mg/kg	–	–
CCCCCCOc1ccc(N2CC(COC)OC2=O)cc1 (stereo not shown) [compound 149]	6 mg/kg	–	–
CCCOCC1CN(c2ccc(OCc3cccc(C#N)c3)cc2)C(=O)O1 (stereo not shown) [compound 160]	–	4.2 mg/kg	–
NCC1CN(c2ccc(OCC3CCCCC3)cc2)C(=O)O1 (stereo not shown) [compound 172]	–	8.6 mg/kg	–
CNCC1CN(c2ccc(OCC3CCCCC3)cc2)C(=O)O1 (stereo not shown) [compound 173]	–	4.7 mg/kg	–
